Earlier results, collected in patent US10399946B2, “Solid forms of an S-Nitrosoglutathione reductase inhibitor” (Alpine Immune Sciences, Inc., priority 2015, dated 2019).

Experiments:
[1] = biological target: S-nitrosoglutathione reductase (GSNOR) (Homo sapiens, UniProt P11766); conditions: variety of assays and therapeutic models
[2] = described in WO2012/048181, US 62/061,557, 62/093,712, 62/138,792, 62/209,724, WO 2016/057811

Chain of S-nitrosoglutathione reductase (GSNOR) (P11766 whole entry): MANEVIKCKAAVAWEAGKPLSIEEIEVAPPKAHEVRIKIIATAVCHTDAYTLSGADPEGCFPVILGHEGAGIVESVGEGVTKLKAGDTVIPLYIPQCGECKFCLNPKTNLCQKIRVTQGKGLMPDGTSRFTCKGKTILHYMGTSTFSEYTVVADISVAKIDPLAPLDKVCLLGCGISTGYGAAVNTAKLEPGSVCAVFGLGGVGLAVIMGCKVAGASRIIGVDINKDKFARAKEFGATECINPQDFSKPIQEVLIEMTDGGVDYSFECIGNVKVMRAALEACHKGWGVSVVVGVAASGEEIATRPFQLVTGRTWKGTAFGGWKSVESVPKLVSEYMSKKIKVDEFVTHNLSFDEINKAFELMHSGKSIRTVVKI

O=C(O)c1ccc(-c2ccc3cc(O)ccc3n2)c(Cl)c1 [Compound 1, 3-chloro-4-(6-hydroxyquinolin-2-yl)benzoic acid]
inhibition of S-nitrosoglutathione reductase (GSNOR) [1]: selective and reversible inhibition | efficacy in asthma, COPD, cystic fibrosis, and IBD models [2]: demonstrates efficacy
